Active and inactive are the calls of the source. The calls are words filed in the database; no cut-off is given here.
Columns and labels:
[1] = Antiproliferative activity against mouse NIH-3T3 cells by MTT assay; format: cell-based, NIH3T3; details: for Activity: mouse, nih3t3; for IC50: Mus musculus, NIH3T3
[2] = system: GLC-4S; assay: (§1) Antiproliferative activity against human GLC-4S cells by MTT assay; format: functional, cell-based
[3] = system: Jurkat; assay: Antiproliferative activity against human Jurkat E6-1 cells by MTT assay; format: functional, cell-based
[4] = as §1; format: functional, cell-based

Row | Structure (SMILES) | Activity [1] | Activity [2] | Activity [3] | IC50 [4] [µM] | IC50 [3] [µM] | IC50 [1] [µM]
1 | O=C(O)CNC(=O)c1c2ccccc2nc2ccccc12 | Not Active | inactive | inactive | – | – | –
2 | CC(=O)N[C@H]1C[C@@H](C(=O)N[C@H]2C[C@@H](C(N)=O)N(C(=O)CNC(=O)c3c4ccccc4nc4c3[nH]c3ccccc34)C2)N(C(=O)CNC(=O)c2c3ccccc3nc3c2[nH]c2ccccc23)C1 | Not Active | – | – | 54 | 37 | –
3 | CC(=O)N[C@H]1C[C@@H](C(=O)N[C@H]2C[C@@H](C(N)=O)N(C(=O)CNC(=O)c3c4ccccc4nc4ccccc34)C2)N(C(=O)CNC(=O)c2c3ccccc3nc3ccccc23)C1 | Not Active | – | – | 135 | 149 | –
4 | CC(=O)N[C@H]1C[C@@H](C(=O)N[C@H]2C[C@@H](C(=O)N[C@H]3C[C@@H](C(N)=O)N(C(=O)CNC(=O)c4c5ccccc5nc5c4[nH]c4ccccc45)C3)N(C(=O)CNC(=O)c3c4ccccc4nc4ccccc34)C2)N(C(=O)CNC(=O)c2c3ccccc3nc3c2[nH]c2ccccc23)C1 | – | – | – | 82 | 112 | 263
5 | CC(=O)N[C@H]1C[C@@H](C(=O)N[C@H]2C[C@@H](C(N)=O)N(C(=O)CNC(=O)c3c4ccccc4nc4ccccc34)C2)N(C(=O)CNC(=O)c2c3ccccc3nc3c2[nH]c2ccccc23)C1 | Not Active | – | – | 165 | 120 | –
6 | O=C(O)CNC(=O)c1c2ccccc2nc2c1[nH]c1ccccc12 | Not Active | inactive | – | – | 12 | –
7 | COC(=O)CNC(=O)c1c2ccccc2nc2c1[nH]c1ccccc12 | Not Active | inactive | – | – | 8 | –
8 | CC(=O)N[C@H]1C[C@@H](C(=O)N[C@H]2C[C@@H](C(=O)N[C@H]3C[C@@H](C(N)=O)N(C(=O)CNC(=O)c4c5ccccc5nc5c4[nH]c4ccccc45)C3)N(C(=O)CNC(=O)c3c4ccccc4nc4c3[nH]c3ccccc34)C2)N(C(=O)CNC(=O)c2c3ccccc3nc3ccccc23)C1 | – | – | – | 151 | 103 | 227
9 | CC(=O)N[C@H]1C[C@@H](C(=O)N[C@H]2C[C@@H](C(=O)N[C@H]3C[C@@H](C(N)=O)N(C(=O)CNC(=O)c4c5ccccc5nc5ccccc45)C3)N(C(=O)CNC(=O)c3c4ccccc4nc4ccccc34)C2)N(C(=O)CNC(=O)c2c3ccccc3nc3c2[nH]c2ccccc23)C1 | – | – | – | 169 | 129 | 357
10 | COC(=O)CNC(=O)c1c2ccccc2nc2ccccc12 | Not Active | inactive | inactive | – | – | –
11 | CC(=O)N[C@H]1C[C@@H](C(=O)N[C@H]2C[C@@H](C(N)=O)N(C(=O)CNC(=O)c3c4ccccc4nc4c3[nH]c3ccccc34)C2)N(C(=O)CNC(=O)c2c3ccccc3nc3ccccc23)C1 | – | – | – | 125 | 92 | 376
12 | CC(=O)N[C@H]1C[C@@H](C(=O)NC2C[C@@H](C(=O)NC3C[C@@H](C(N)=O)N(C(=O)CNC(=O)c4c5ccccc5nc5ccccc45)C3)N(C(=O)CNC(=O)c3c4ccccc4nc4ccccc34)C2)N(C(=O)CNC(=O)c2c3ccccc3nc3ccccc23)C1 (some centres not stated) | Not Active | – | inactive | 134 | – | –
13 | CC(=O)N[C@H]1C[C@@H](C(=O)N[C@H]2C[C@@H](C(=O)N[C@H]3C[C@@H](C(N)=O)N(C(=O)CNC(=O)c4c5ccccc5nc5c4[nH]c4ccccc45)C3)N(C(=O)CNC(=O)c3c4ccccc4nc4ccccc34)C2)N(C(=O)CNC(=O)c2c3ccccc3nc3ccccc23)C1 | – | – | – | 174 | 86 | 426
14 | CC(=O)N[C@H]1C[C@@H](C(=O)N[C@H]2C[C@@H](C(=O)N[C@H]3C[C@@H](C(N)=O)N(C(=O)CNC(=O)c4c5ccccc5nc5ccccc45)C3)N(C(=O)CNC(=O)c3c4ccccc4nc4c3[nH]c3ccccc34)C2)N(C(=O)CNC(=O)c2c3ccccc3nc3ccccc23)C1 | Not Active | – | – | 91 | 87 | –
